Tests used:
[1] = test system: CFA-induced mechanical hyperalgesia in rats; experiment: CFA-induced mechanical hyperalgesia in rats; type: in vivo, rat; conditions: male CD rats, dose 10^-5 mol/kg, test 23 hours after injecting the CFA, 1 h after treatment; vehicle 120 ± 6.1, normal animals 155±2.1 g
From the text: 1. CFA-induced Mechanical Hyperalgesia in Rats
Male CD rats weighing 150-200 g on arrival were used.
By means of an analgesimeter, rats with a response threshold to a mechanical nociceptive stimulus in the range from 150 to 180 g were selected. By applying a gradual increase in pressure onto the dorsal region of the left hind paw of the rat, the instrument makes it possible to record the nocifensive response, expressed in grams, corresponding to the moment at which the animal retracts the paw [Randall L O and Selitto J J. A method for the measurement of analgesic activity on inflamed tissue. Arch. Int. Pharmacodyn. Ther. 1957; 111: 409-419].
The hyperalgesia was induced by unilateral injection of 150 μl of “Complete Freund's Adjuvant” (CFA) into the surface of the left hind paw of the animal [Andrew D, Greenspan J D. Mechanical and heat sensitization of cutaneous nociceptors after peripheral inflammation in the rat. J Neurophysiol. 1999; 82(5): 2649-2656; Hargreaves K, Dubner R, Brown R, Flores C, Joris J. A new and sensitive method for measuring thermal nociception in cutaneous hyperalgesia. Pain 1988; 32: 77-88].
The test compounds were tested (dose: 10^−5 mol/kg) by performing the test 23 hours after injecting the CFA.
One hour after the treatment, the pain threshold measured in control animals was compared with that measured in animals treated with the test product. The control animals were treated with the same vehicle (water) used for administering the test products.

[2] = test system: Mechanical hyperalgesia in rats with streptozotocin-induced diabetes (diabetic neuropathy); experiment: Mechanical hyperalgesia in rats with streptozotocin-induced diabetes; type: in vivo, rat; conditions: male CD rats, dose 10^-5 mol/kg, 2 h after treatment, vehicle 114 ± 2.7, normal animals 240±8.7 g
Procedure: 2. Mechanical Hyperalgesia in Rats with Streptozotocin-induced Diabetes
Male CD rats weighing 240-300 g on arrival were used.
The diabetic syndrome was induced by means of a single intraperitoneal (i.p.) injection of 80 mg/kg of streptozotocin dissolved in sterile physiological solution [Courteix C, Eschalier A, Lavarenne J. Streptozotocin-induced diabetic rats: behavioural evidence for a model of chronic pain. Pain, 1993; 53: 81-88; Bannon A W, Decker M W, Kim D J, Campbell J E, Arneric S P. ABT-594, a novel cholinergic channel modulator, is efficacious in nerve ligation and diabetic neuropathy models of neuropathic pain. Brain Res. 1998; 801:158-63].
At least three weeks after the injection of streptozotocin, rats with a level of glycemia≧300 mg/dl and with a response threshold to a mechanical nociceptive stimulus ≦120 g were selected. The glycemia levels were measured by means of a reflectometer, using reactive strips impregnated with glucose oxidase. The pain threshold was measured using an analgesimeter. By applying a gradual increase in pressure onto the dorsal area of the left hind paw of the rat, the instrument makes it possible to record the nocifensive response, expressed in grams, corresponding to the moment at which the animal retracts the paw.
Two hours after the treatment, the pain threshold measured in control animals was compared with that measured in animals treated with the test product (dose: 10^−5 mol/kg).
The control animals were treated with the same vehicle (water) used for administering the test products.

Compound: CC(C)n1nc(C(=O)NCC2CCN(CC(=O)Nc3ccccc3)CC2)c2ccccc21.Cl [AF3R172, N3-((1-(2-oxo-2-(phenylamino)ethyl)-4-piperidyl)methyl)-1-(1-methylethyl)-1H-indazole-3-carboxamide hydrochloride]
- Pain threshold (g) 1 h after the treatment [1]: 175 ± 10.2 g
- Pain threshold (g) 2 h after the treatment [2]: 186 ± 13.0 g

Compound: Cc1ccc(S(=O)(=O)O)cc1.O=C(CN1CCC(CNC(=O)c2n[nH]c3ccccc23)CC1)Nc1ccccc1 [AF3R276, N3-((1-(2-oxo-2-(phenylamino)ethyl)-4-piperidyl)methyl)-1H-indazole-3-carboxamide tosylate]
- Pain threshold (g) 1 h after the treatment [1]: 185 ± 15.9 g
- Pain threshold (g) 2 h after the treatment [2]: 210 ± 10.9 g

Compound: Cl.O=C(CN1CCC(CNC(=O)c2nn(Cc3ccccc3)c3ccccc23)CC1)Nc1ccccc1 [AF3R277, N3-((1-(2-oxo-2-(phenylamino)ethyl)-4-piperidyl)methyl)-1-benzyl-1H-indazole-3-carboxamide hydrochloride]
- Pain threshold (g) 1 h after the treatment [1]: 170 ± 10.7 g
- Pain threshold (g) 2 h after the treatment [2]: 188 ± 11.0 g

Compound: CC(C)n1nc(C(=O)NCC2CCN(CC(=O)Nc3ccc(O)cc3)CC2)c2ccccc21.Cl [AF3R278, N3-((1-(2-((4-hydroxyphenyl)amino)-2-oxoethyl)-4-piperidyl)methyl)-1-(1-methylethyl)-1H-indazole-3-arboxamide hydrochloride]
- Pain threshold (g) 1 h after the treatment [1]: 164 ± 10.2 g
- Pain threshold (g) 2 h after the treatment [2]: 240 ± 16.5 g

Compound: CC(C)n1nc(C(=O)NCC2CCN(CC(=O)Nc3ccc(N)cc3)CC2)c2ccccc21.Cl.Cl [AF3R292, N3-((1-(2-oxo-2-((4-aminophenyl)amino)ethyl)-4-piperidyl)methyl)-1-(1-methylethyl)-1H-indazole-3-carboxamide dihydrochloride]
- Pain threshold (g) 1 h after the treatment [1]: 154 ± 11.5 g
- Pain threshold (g) 2 h after the treatment [2]: 202 ± 8.7 g

Compound: Cc1ccc2[nH]nc(C(=O)NCC3CCN(CC(=O)Nc4ccccc4)CC3)c2c1.Cl [AF3R295, 5-methyl-N-3-((1-(2-oxo-2-(phenylamino)ethyl)-4-piperidyl)methyl)-1H-indazole-3-carboxamide hydrochloride]
- Pain threshold (g) 1 h after the treatment [1]: 202 ± 17.0 g
- Pain threshold (g) 2 h after the treatment [2]: 212 ± 14.6 g

Compound: Cc1ccc2c(c1)c(C(=O)NCC1CCN(CC(=O)Nc3ccccc3)CC1)nn2C(C)C.Cl [AF3R299, 5-methyl-N-3-((1-(2-oxo-2-(phenylamino)ethyl)-4-piperidyl)methy 1)-1-(1-methylethyl)-1H-indazole-3-carboxamide hydrochloride]
- Pain threshold (g) 1 h after the treatment [1]: 167 ± 8.5 g
- Pain threshold (g) 2 h after the treatment [2]: 200 ± 10.7 g

Compound: CC(C)n1nc(C(=O)NCC2CCN(CC(=O)Nc3ccc(N(C)C)cc3)CC2)c2ccccc21.Cl.Cl [AF3R301, N3-((1-(2-oxo-2-((4-(dimethylamino)phenyl)amino)ethyl)-4-piperidyl)methyl)-1-(1-methylethyl)-1H-indazole-3-carboxamide dihydrochloride]
- Pain threshold (g) 1 h after the treatment [1]: 151 ± 10.7 g
- Pain threshold (g) 2 h after the treatment [2]: 201 ± 13.8 g

Compound: Cc1cccc(C)c1NC(=O)CN1CCC(CNC(=O)c2nn(C(C)C)c3ccccc23)CC1.O=C(O)C(=O)O [AF3R305, N3-((1-(2-oxo-2-((2,6-dimethylphenyl)amino)ethyl)-4-piperidyl)methyl)-1-(1-methylethyl)-1H-indazole-3-carboxamide oxalate]
- Pain threshold (g) 1 h after the treatment [1]: 174 ± 8.4 g
- Pain threshold (g) 2 h after the treatment [2]: 189 ± 9.2 g

Compound: CC(C)n1nc(C(=O)NCC2CCN(CC(=O)Nc3ccc(OCc4ccccc4)cc3)CC2)c2ccccc21 [AF3R331, N3-((1-(2-oxo-2-((4-((phenylmethyl)oxy)phenyl)amino)ethyl)-4-piperidyl)methyl)-1-(1-methylethyl)-1H-indazole-3-carboxamide]
- Pain threshold (g) 1 h after the treatment [1]: 156 ± 8.7 g
- Pain threshold (g) 2 h after the treatment [2]: 192 ± 11.5 g

Compound: CC(C)n1nc(C(=O)NCC2CCN(CC(=O)Nc3ccc([N+](=O)[O-])cc3)CC2)c2ccccc21 [AF3R335, N3-((1-(2-oxo-2-((4-nitrophenyl)amino)ethyl)-4-piperidyl)methyl)-1-(1-methylethyl)-1H-indazole-3-carboxamide]
- Pain threshold (g) 1 h after the treatment [1]: 168 ± 6.8 g
- Pain threshold (g) 2 h after the treatment [2]: 180 ± 13.0 g

Source: patent US8519139B2, “Indazolamides with analgesic activity” (Aziende Chimeche Riunite Angelini Francesco A.C.R.A.F. …, priority 2003, dated 2013)
